What was measured:
[1] = tested on: high-grade dysplasia in human esophagus; assay: Binding of QRH*-Cy5.5 to high-grade dysplasia in human esophagus
HT29 cells = assay: Apparent dissociation constant on flow cytometry; type: binding, human; settings: 4° C., 1 hour
Experimental: We measured the apparent dissociation constant of the peptide to HT29 cells as an assessment of binding affinity. QRH*-Cy5.5 was serially diluted in PBS at concentrations of 0, 10, 25, 50, 75, 100, 125, 150 and 200 nM. HT29 cells (˜10^5) were incubated with QRH*-Cy5.5 at 4° C. for 1 hour, washed with cold PBS, and the mean fluorescence intensities were measured on flow cytometry. The equilibrium dissociation constant kd=1/ka was calculated by performing a least squares fit of the data to the non-linear equation […]. I0 and Imax are the initial and maximum fluorescence intensities, corresponding to no peptide and at saturation, respectively, and [X] represents the concentration of the bound peptide [Thomas et al., Clin Exp Metastasis, 26:105-119 (2009)]. Origin 6.1 data analysis software (OriginLab Corp) was used to calculate kd.

[2] = tested on: colonic dysplasia (flat lesions and polyps); assay: In vivo NIR fluorescence endoscopy of colon in CPC;Apc mouse; settings: for mean (±SD) log of the T/B ratio: topical 100 μM, 5 min incubation
Experimental: For the in vivo fluorescence images of mouse colon, the T/B ratios for flat dysplasia and polyps were log-transformed to improve normality. The fold-change between classification pairs was estimated using the anti-log of the difference in the log-transformed data. Differences in results between the experimental and control peptides were evaluated on t-test. *P<0.05 was considered significant. Similar methods were used to evaluate the ex vivo fluorescence images of human colonic specimens. The results were plotted on a receiver-operator characteristic (ROC) curve. Co-localization of peptide and antibody binding was evaluated on Pearson's correlation coefficient. All analyses were performed using custom Matlab software (MathWorks Inc).
Mouse imaging studies were performed with approval of the University of Michigan Committee on the Use and Care of Animals (UCUCA). The mice were housed in pathogen-free conditions and supplied water ad libitum under controlled conditions of humidity (50±10%), light (12/12 hour light/dark cycle) and temperature (25° C.). Anesthesia was induced and maintained via a nose cone with inhaled isoflurane mixed with oxygen at a concentration of 2-4% at a flow rate of ˜0.5 L/min. The colon was first rinsed with tap water to remove mucous and debris. White light illumination was used first to identify anatomic landmarks, including polyps, mucosal folds, colonic segment, and distance of endoscope tip from anus, to register images with histology. The Cy5.5-labeled peptides were delivered at a concentration of 100 μM in a volume of 1.5 mL through the 3 Fr instrument channel. After 5 min for incubation, the colon was rinsed 3× with a tap water to remove the unbound peptides. After imaging was completed, the mice were euthanized. The colon was resected, and divided along the longitudinal axis. Flat lesions and polyps were identified on fluorescence, excised perpendicular to the mucosal surface, and processed for histology (H&E). We collected images from mice (n=5) that ranged in age from 7 to 10 months.
Imaging was performed using a small animal endoscope (Karl Storz Veterinary Endoscopy).^39 A xenon light source provides white light illumination via a fluid light cable. A diode-pumped solid state laser (TechnicaLaser Inc) provides excitation at λex=671 nm. The laser beam is expanded to a diameter of 3 mm to fill the aperture of the light cable. The laser power at the tip of the endoscope is <2 mW. The white light images reflect off a dichroic mirror (Semrock Inc, # FF685-Di02-25×36, λc=685 nm), and are focused by an achromatic doublet (Edmund Optics Inc, #32-323). They pass through a neutral density filter (OD 1), and are detected by a color camera (Point Grey Research, # GX-FW-28S5C-C). The fluorescence images pass through the dichroic and a band pass filter (Semrock Inc, # FF01-716/40-25, λC=716 nm, Δλ=40 nm), and are focused on a monochrome camera (Point Grey Research, # GX-FW-28S5M-C). All videos (1932×1452 resolution) are recorded at 15 frames per sec via a firewire connection.
White light and fluorescence videos were exported in avi format with 24 (RGB) and 8 (grayscale) bit digital resolution for the color and fluorescence images, respectively. […] Individual frames were exported using custom Matlab software. On the fluorescence images, 3 regions of interest (ROI, 25×25 pixels) were picked at random within the dysplastic lesion and within adjacent areas of normal-appearing mucosa. The mean intensities within these ROI's on the fluorescence images were measured. The target to-background (T/B) ratio for each image was determined by ratioing the mean intensities of these two ROIs.

[3] = tested on: dysplastic crypts in polyps; assay: Immunofluorescence on mouse colon polyp specimens; settings: OCT embedded polyp specimens
Experimental: Specimens of flat dysplasia in mouse colon were formalin fixed and processed as described above. Specimens of polypoid dysplasia in mouse colon were frozen in OCT (Sakura Finetek), cut in 10 μm sections, and incubated with 1:1000 dilution of primary goat anti-mouse anti-EGFR antibody and AF488-labeled secondary antibody, as described previously. The sections were washed 3× with PBS, fixed with 4% PFA for 10 min, washed with PBS 1×, and mounted with Prolong Gold reagent containing DAPI (Invitrogen). Confocal microscopy images were collected with DAPI, AF488, and Cy5.5 filters. Adjacent sections were processed for histology (H&E).

staining of high-grade dysplasia (HGD) [1]: Intense staining | fluorescence for binding to dysplastic crypts [3]: increased fluorescence
Substance: QRHKPRE (SEQ ID NO: 1) with Cy5.5 fluorophore attached via a GGGSK linker (SEQ ID NO: 18) on the C-terminus [QRH*-Cy5.5]
Kd (HT29 cells): 0.05 µM | mean fold-difference of T/B, QRH*-Cy5.5 versus PEH*-Cy5.5 ([2]; flat lesions (n=15)): 2.05 | mean (±SD) log of the T/B ratio ([2]; flat lesions (n=15)): 0.420±0.103 | mean fold-difference of T/B, QRH*-Cy5.5 versus PEH*-Cy5.5 ([2]; polyps (n=15)): 2.43 | mean (±SD) log of the T/B ratio ([2]; polyps (n=15)): 0.572±0.181 | NIR fluorescence signal from polyp and flat lesions in vivo ([2]; topical, distal colon, 5 min): increased intensity

Reference: patent US20200102349A1, “PEPTIDE REAGENTS AND METHODS FOR DETECTION AND TARGETING OF DYSPLASIA, EARLY CANCER AND CANCER” (THE REGENTS OF THE UNIVERSITY OF MICHIGAN, priority 2014, published 2020)
